Measured values published in patent publication US7238469B2, “Carbon monoxide improves outcomes in tissue and organ transplants and suppresses apoptosis” (priority 2001, dated 2007).

Key:
[1] = test system: mouse hearts transplanted into rats; test: Mouse-to-rat heterotopic cardiac transplant, graft survival; format: in vivo, BALB/c mouse hearts, Lewis rats; conditions: for graft outcome: mouse hearts into rats, FePPIX with CVF plus CsA, CO 400 ppm in SnPPIX-treated rats
From the text: BALB/c mouse hearts were used as donor organs for transplantation into inbred adult male Lewis rats (Harlan Sprague-Dawley, Indianapolis, Ind.). Animals were housed in accordance with guidelines from the American Association for Laboratory Animal Care, and research protocols were approved by the Institutional Animal Care and Use Committees of the Beth Israel Deaconess Medical Center.
Animals were anesthetized by a combination of methoxyflurane (Pitman-Moore, Mundelain, Ill.) inhalation and pentobarbital (Abbott, North Chicago, Ill.) at a dose of 30–50 mg/kg i.p. during all procedures. Heterotopic cardiac transplants were performed as described previously (Berk et al., Physiol Rev. 8:999–1030, 2001; Petkova et al., J Biol. Chem. 276:7932–7936, 2001). Graft survival was assessed daily by palpation. Rejection was diagnosed by cessation of ventricular contractions and confirmed by histologic examination.
Cobra venom factor (CVF; which blocks complement activation) (Quidel, San Diego, Calif.) was administered i.p. on day −1 (60 U/kg) and on day 0 (20 U/kg) with respect to the day of transplantation (day 0). Cyclosporin A (CsA; Novartis, Basel, Switzerland), which blocks T cell activation, was administered i.m. (15 mg/kg) starting at day 0 and daily thereafter until the end of each experiment. Tin protoporphyrin (SnPPIX), cobalt protoporphyrin (CoP-PIX), and iron protoporphyrin (FePPIX; Porphyrin Products, Logan, Utah) were diluted in 100 mM NaOH to a stock solution of 50 mM and kept at −70° C. until used. Light exposure was limited as much as possible. Both SnPPIX and FePPIX were administered i.p. (30 μM/kg) in PBS. FePPIX and SnPPIX were administered to the donor at days −2 and −1 (30 μM/kg) and to the recipient at the time of transplantation (day 0) and daily thereafter (30 μM/kg).
Briefly, CO at a concentration of 1% (10,000 parts per million; ppm) in compressed air was mixed with balanced air (21% oxygen) in a stainless steel mixing cylinder before entering the exposure chamber. CO concentrations were controlled by varying the flow rates of CO in a mixing cylinder before delivery to the chamber. Because the flow rate is primarily determined by the O2 flow, only the CO flow was changed to deliver the final concentration to the exposure chamber. A CO analyzer (Interscan Corporation, Chatsworth, Calif.) was used to measure CO levels continuously in the chamber. Graft donors were placed in the CO exposure chamber 2 days before transplantation. Graft recipients were placed in the exposure chamber immediately following transplantation and were kept in the exposure chamber for 14 (n=3) or 16 (n=3) days. CO concentration was maintained between 250 and 400 ppm at all times. Animals were removed daily from the chamber to assess graft survival and to administer CsA, SnPPIX, or FePPIX, as described above.

[2] = test system: mouse hearts transplanted into rats; test: Immunohistology of cardiac grafts (thrombosis, apoptosis); format: in vivo, BALB/c mouse hearts, Lewis rats; conditions: for vascular thrombosis in graft: 3 days after transplantation
Procedure: Grafts were harvested 3 days after transplantation, snap-frozen in liquid nitrogen, and stored at −80° C. Cryostat sections were fixed and stained as described previously (Soares et al, Nature Med. 4:1073, 1998). Rat leukocyte populations were analyzed by using anti-rat leukocyte common Ag (LCA, CD45; OX-1), Éé TCR (TCRÉé-chains; R73), B cell (CD45RB; OX-33), NK cell (NKR-P1; 3.2.3), and MΦ (CD68; ED-1), mAbs (Serotec, Harlan Bioproducts for Science, Indianapolis, Ind.). Detection of fibrin/fibrinogen was conducted by using a rabbit anti-human fibrin/fibrinogen polyclonal Ab (Dako, Carpinteria, Calif.). Intragraft complement activation was detected by using an anti-rat Clq (The Binding Site, Birmigham, U. K.), C3 (ED11; Serotec), or C5b-9 mAb (Dako). Rat IgM was detected by using the mouse anti-rat IgM mAb MARM-4 (a kind gift of Dr. H. Bazin, University of Louvain, Brussels, Belgium). Isotype-matched mAbs or purified Ig, as well as a control for residual endogenous peroxidase activity, were included in each experiment. Detection of apoptosis was carried out by using ApopTagO in situ apoptosis detection kit (Oncor, Gaithersburg, Md.) according to the manufacturer's instructions.
Mouse hearts were transplanted into CVF plus CsA-treated rats. SnPPIX or FePPIX was administered and graft recipients were exposed to CO (250–400 ppm). Grafts were harvested 3 days after transplantation (n=3 per group) and stained for rat IgM, rat and mouse complement C1q, rat and mouse P-selectin, rat and mouse fibrin/fibrinogen, and rat CD45 expressing leukocytes. […] HO-2, HO-1, and ferritin were detected in graft endothelial and smooth muscle cells as well as in cardiac myocytes (data not shown). There was only minimal vascular thrombosis or infiltration by host leukocytes usually associated with focal areas of infarction (data not shown). There was low but detectable P-selectin expression on the vascular endothelium (data not shown). […] Thrombi were consistently observed in large coronary vessels at the base of the heart. There were no detectable P-selectin-expressing platelet aggregates in the microvasculature (data not shown). There was extensive graft infiltration by host neutrophils as well as by CD45^++ leukocytes expressing the monocyte/MΦ marker CD68/ED-1 and MHC class II Ags (data not shown). Infiltrating monocyte/MΦ were found near arterioles and scattered throughout the myocardium, associated with areas of infarction.

[3] = rats treated with SnPPIX or FePPIX

[C-]#[O+] [CO, carbon monoxide]
dose of CO used as fraction of the lethal dose ([1]; 400–500 ppm): approximately one-twentieth
graft outcome [1]: survived long term
untoward reactions ([1]; rats and mice exposed to CO): did not exhibit untoward reactions
time grafts continued to function ([1]; rats treated with SnPPIX, CO 400 ppm discontinued 14 or 16 days after transplantation): > 50 days
vascular thrombosis in graft ([2]; SnPPIX-treated rats exposed to CO 250–400 ppm): no signs of vascular thrombosis
apoptosis in transplanted mouse hearts ([2]; rats treated with SnPPIX and exposed to CO): Apoptosis did not occur

C=CC1=C(C)c2cc3[n-]c(cc4[n-]c(cc5nc(cc1n2)C(C)=C5C=C)c(C)c4CCC(=O)O)c(CCC(=O)O)c3C.[Fe+2] [FePPIX, iron protoporphyrin]
graft outcome [1]: did not lead to graft rejection
apoptosis in transplanted mouse hearts [2, 3]: Apoptosis did not occur

C=Cc1c2[n-]c(c1C)/C=c1\[n-]/c(c(C)c1C=C)=C\c1[n-]c(c(CCC(=O)O)c1C)C=c1[n-]/c(c(C)c1CCC(=O)O)=C\2.[Sn+4] [SnPPIX, tin protoporphyrin IX]
time to graft rejection after transplantation ([1]; SnPPIX to donor and recipient, despite CVF plus CsA): 3 to 7 days
vascular thrombosis in graft ([2]; CVF plus CsA-treated rats, SnPPIX): widespread vascular thrombosis of large coronary vessels
apoptosis in transplanted mouse hearts [2, 3]: widespread apoptosis of endothelial cells and cardiac myocytes
